Our source for the IC50 values is US20130131062A1, “PYRIDAZINONES AND FURAN-CONTAINING COMPOUNDS” (priority 2006, published 2013).

In one series the test system is HPL1D. Nature of the series: Sensitivity of cell proliferation to erlotinib. Format: cell-based. The conditions noted are these: Homo sapiens, read-out: IC50 (Erlotinib) HPL1D; EGFR WT, KRAS WT. The source says:
(§1) NHBE (normal human bronchiolar epithelial cells) are primary cells obtained from donor lungs and commercially available from Cambrex. The HPLID (human peripheral lung epithelial) cell line has been immortalized with the SV40 large T-antigen. WI-38: human lung fibroblast cell line. HPLID, NHBE and WI-38 cells will serve as controls in the chemical screens. WT: wildtype; WT*: over-expressed wildtype.

In series [1] the test system is 15 non small cell lung cancer lines representing various EGFR and KRAS mutations. The series is described as follows: Dose response studies against 15 NSCLC lines (alamar blue). The format is cell-based, human. The conditions noted are these: Homo sapiens. As to the method: Dose response studies against 34 compounds from the pyridazinone and phenylfuran-carboxamide class were conducted. […] In addition, Tarceva was included in these dose response studies.
The dose response studies were done with the following standard procedure. First, the cells were counted and dispensed at 250 cells/well into 384-well microplates with compound. The cells were incubated for 48 hours at 37 C to complete treatment, and then alamar blue was added for an additional 48 hours. Finally, alamar blue reduction was measured and the data was loaded into ORIS, our data screening acquisition platform.
A general note: The colour change of resazurin is a common sign of viable cells or microbes.

A short description of the next series: in vitro. The conditions noted are these: human. The protocol: as §1
Compounds were tested in dose response studies from 10 μM to 5 nM against several non small cell lung cancer lines: H358, H827, H1118, H1650, H1734, H1975, H2030, and H3255, and were also studied in a 72 hour cytotoxicity assay against the NHBE and WI-38 cell lines.

A further series deals with H1734. Nature of the series: Non Small Cell Lung Cancer Proliferation Assay (Alamar Blue), dose response. The conditions noted are these: Homo sapiens, NCI-H1734, read-out: H1734 Dose Response (uM).
In the next series the test system is H1118. The series is described as above. The conditions noted are these: Homo sapiens, read-out: H1118 Dose Response (uM).
Another series relates to H2030. The series is described as follows: Non Small Cell Lung Cancer Proliferation Assay (Alamar Blue). Format: cell-based, human. The conditions noted are these: Homo sapiens, NCI-H2030, dose response 10 μM to 5 nM. The protocol:
(§2) These cells have a doubling time of 1-2 days. All cell types are adherent and grow in colonies. The cells should be kept at a density between 50,000 cells/mL-500,000 cells/mL to provide for optimum growth and adequate nutrition. The cell line should be maintained at 37° C. in a humidified atmosphere with 5% CO2 in a sterile cell culture incubator.
(§3) To perform the assay, the Non Small Cell Lung Cancer lines are diluted in media and plated into 384 well microplates at a final density of 250 cells in 45 μL.
(§4) High Controls for this assay are made by treating Non Small Cell Lung Cancer cells with 5 ul of 10% DMSO. [Final concentration in this assay is 1% DMSO].
(§5) Important Note: All compounds for testing in this assay should be done at the final concentration of 1% DMSO.
(§6) After addition, the cells are placed in cell culture incubator at 37° C. for 48 hours for complete treatment.
(§7) After drug treatment, cytotoxicity is measured by Alamar Blue reduction.
(§8) The cells are incubated for 48 hours at 37° C. to complete the Alamar Blue reduction.
(§9) The final step in the assay is to measure the amount of Alamar Blue reduction. […] The Alamar Blue fluorescence is measured at an excitation of 530 nm and emission of 590 nm.
(§10) For the NSCLC project, the cell based assay was screened against a small molecule library of approximately 200,000 compounds. The compound library is stored in our automated robotic freezer (Biophile) at −20° C. in 100% DMSO. Compound freeze and thaw cycles are kept to a minimum. […] This assay was performed on a fully automated linear track robotic platform (CRS F3 Robot System, Thermo Electron Corp., Ontario, Canada) utilizing several integrated peripherals for plate handling, liquid dispensing, and readout detection. […] The microplates are then placed at 37° C. for 48 hours to complete treatment of cells with compounds. Next, 5 ul of alamar blue was added using a liquid dispenser (FlexDrop Precision Dispenser, Perkin Elmer, Mass., USA) and incubated for 48 hours at 37° C. The alamar blue prompt fluorescence was measured on Victor V (Victor^3 V, Perkin Elmer, Mass., USA) and output data files were loaded into ORIS (Oncology Research Informatics System, MSKCC, NY, USA), a screening data acquisition and analysis platform.

For another series, the system named is H3255. The description is as above. Format: cell-based, human. The conditions noted are these: Homo sapiens, NCI-H3255, dose response 10 μM to 5 nM. The protocol:
as §2, §3, §4, §5, §6, §7, §8, §9, §10

The subject of another series is H1650. Described as above. The format is cell-based, human. The conditions noted are these: Homo sapiens, NCI-H1650, dose response 10 μM to 5 nM. As to the method: (§11) Non Small Cell Lung Cancer cell lines are grown and maintained in Corning 175 cm2 flasks in RPMI 1640 media supplemented with 10% FBS, 1% antibiotic solution, 1% additional glutamine and pyruvate. These cells have a doubling time of 1-2 days. All cell types are adherent and grow in colonies. The cells should be kept at a density between 50,000 cells/mL-500,000 cells/mL to provide for optimum growth and adequate nutrition. The cell line should be maintained at 37° C. in a humidified atmosphere with 5% CO2 in a sterile cell culture incubator.
(§12) To perform the assay, the Non Small Cell Lung Cancer lines are diluted in media and plated into 384 well microplates at a final density of 250 cells in 45 μL. To ensure consistency and minimal pipetting error, the cells are plated using the Multidrop 384 with the following settings: Rocker Switch set at 384, Volume 45 and Column 24.
(§13) Low Controls for this assay are made by treating Non Small Cell Lung Cancer cells with 5 ul of staurosporine at 250 uM in 10% DMSO and 1% SDS. [Final concentration in this assay is 25 uM staurosporine in 1% DMSO and 0.1% SDS.]
as §4
(§14) The remaining wells of the 384 microplate may be treated with different compounds depending on the study. Important Note: All compounds for testing in this assay should be done at the final concentration of 1% DMSO.
as §6
(§15) After drug treatment, cytotoxicity is measured by Alamar Blue reduction. 5 μL of Alamar Blue is added to the 384 microplates using the Flexdrop.
as §8, §9
(§16) For the NSCLC project, the cell based assay was screened against a small molecule library of approximately 200,000 compounds. The compound library is stored in our automated robotic freezer (Biophile) at −20° C. in 100% DMSO. Compound freeze and thaw cycles are kept to a minimum. Compounds for use are diluted into the appropriate concentration and plated into 384 well microplates using our custom built low volume 384-well head tool (TPS 384, Apricot Designs Inc., CA, USA). This assay was performed on a fully automated linear track robotic platform (CRS F3 Robot System, Thermo Electron Corp., Ontario, Canada) utilizing several integrated peripherals for plate handling, liquid dispensing, and readout detection. First, non-small cell lung cancer cell lines are dispensed into 384 well microplates (Corning #3712 Tissue Culture Treated Plate, Corning, N.Y., USA) with 5 μL of test compounds at 100 uM in 10% DMSO for screening studies or 1 mM in 10% DMSO to 50 nM in 10% DMSO for dose response studies. The microplates are then placed at 37° C. for 48 hours to complete treatment of cells with compounds. Next, 5 ul of alamar blue was added using a liquid dispenser (FlexDrop Precision Dispenser, Perkin Elmer, Mass., USA) and incubated for 48 hours at 37° C. The alamar blue prompt fluorescence was measured on Victor V (Victor^3 V, Perkin Elmer, Mass., USA) and output data files were loaded into ORIS (Oncology Research Informatics System, MSKCC, NY, USA), a screening data acquisition and analysis platform.

For the next series, the system named is H1975. The series is described as above. Format: cell-based, human. The conditions noted are these: Homo sapiens, NCI-H1975, dose response 10 μM to 5 nM. The protocol:
as §11, §12, §13, §4, §14, §6, §15, §8, §9, §16

In the next series the test system is H827. Nature of the series: Non Small Cell Lung Cancer Proliferation Assay (Alamar Blue), dose response. The conditions noted are these: Homo sapiens, read-out: H827 Dose Response (uM).
The subject of another series is H358. The description is as above. The conditions noted are these: Homo sapiens, NCI-H358, read-out: H358 Dose Response (uM).

Read-outs that look alike come from different tables or passages of the source.

Experimental for H1118: (§17) This assay was performed on a fully automated linear track robotic platform (CRS F3 Robot System, Thermo Electron Corp., Ontario, Canada) utilizing several integrated peripherals for plate handling, liquid dispensing, and readout detection. […] The microplates are then placed at 37° C. for 48 hours to complete treatment of cells with compounds. Next, 5 ul of alamar blue was added using a liquid dispenser (FlexDrop Precision Dispenser, Perkin Elmer, Mass., USA) and incubated for 48 hours at 37° C. The alamar blue prompt fluorescence was measured on Victor V (Victor^3 V, Perkin Elmer, Mass., USA) and output data files were loaded into ORIS (Oncology Research Informatics System, MSKCC, NY, USA), a screening data acquisition and analysis platform. […]
Experimental for H1734: as §17
Experimental for H358: as §17
Experimental for H827: as §17

For the compound `C#Cc1cccc(Nc2ncnc3cc(OCCOC)c(OCCOC)cc23)c1` [Erlotinib, erlotinib], the IC50 with HPL1D was 10 µM.

For the compound `Cc1cccc(-n2ncc(Cl)c(Cl)c2=O)c1` [compound 104122, 4,5-dichloro-2-m-tolyl-2H-pyridazin-3-one], the IC50 in [1] (read-out: IC50 H23) came to 0.21 µM; in [1] (read-out: IC50 H1118), 0.34 µM; in series [1] (read-out: IC50 HPL1D), 0.28 µM; in series [1] (read-out: IC50 PC9), 0.65 µM. The IC50 at 72 h in “in vitro” (NHBE CytoTox (uM)) came out at 3.4 µM.

On to `CN/N=C1\C=NN(c2ccccc2)C(=O)C1Cl` (stereo not shown) [compound 257024], for which the IC50 in the series on H1734, in the series with H1118, with H2030, in the series with H3255, with H1650 and in the series with H1975 was above 10 µM in each case. Also, the IC50 in the series on H827 and in the series with H358 was above 10 µM each time. Moreover, the IC50 at 72 h in “in vitro” and in “in vitro” (NHBE CytoTox (uM)) was above 10 µM throughout.
